Converted amounts (≈) assume the structure as drawn.
Tests used:
[1] = format: in vitro ADME; details: RED assay
physchem = details: phosphate buffer, pH 7.4
BRD4(BD2) = BRD4(BD2) (Homo sapiens, UniProt O60885); experiment: TR-FRET binding assay, BRD4
in vitro [2] = details: human, microsomes
BRD2 (BD1) = BRD2 (BD1) (Homo sapiens, UniProt P25440); experiment: TR-FRET binding assay, BRD2
[3] = incubation 0.5h, UV; table
NALM16 leukaemia cells = experiment: Cancer cell viability, CellTiter-Glo, NALM16; format: cell-based; details: NALM16, 72 h, read-out: NALM16, IC50
in vitro [4] = details: human, plasma
in vitro [5] = details: human; for Papp B→A: Caco-2; for Papp: Caco-2, Caco2 A/B (Papp), A to B
[6] = tested on: D283 medulloblastoma cells; experiment: Cancer cell viability, CellTiter-Glo, D283; format: cell-based; details: D283, 72 h, read-out: D283, IC50
[7] = tested on: MOLM-13 acute leukaemia cells; experiment: Cancer cell viability, CellTiter-Glo, MOLM-13; format: cell-based; details: Homo sapiens, MOLM-13, 72 h, read-out: MOLM-13, IC50
BRD2(BD2) = BRD2(BD2) (Homo sapiens, UniProt P25440); experiment: TR-FRET binding assay, BRD2
Sequence of BRD2(BD2) (P25440 344-453 limits assumed): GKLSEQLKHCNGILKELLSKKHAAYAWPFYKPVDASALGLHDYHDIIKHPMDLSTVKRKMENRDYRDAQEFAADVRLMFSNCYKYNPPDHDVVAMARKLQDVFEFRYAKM

BET isoforms = experiment: BROMOscan profiling; details: all BET isoforms (Figure S2)
[8] = In vivo pharmacokinetic study in female CD1 mice; details: P.O. 3mg/kg and 10mg/kg
BRD4 (BD1) = BRD4 (BD1) (Homo sapiens, UniProt O60885); experiment: TR-FRET binding assay, BRD4
MYC = MYC protein abundance by immunoblotting in MV4-11; format: cell-based; details: MV4–11, 6 hours incubation, 100 nM
[9] = tested on: HDMB03 medulloblastoma cells; experiment: cells; format: cell-based; details: Homo sapiens, HD-MB03, 72 h, read-out: HDMB03, IC50
[10] = incubation up to 48h

Sequence of BRD2 (BD1) (P25440 74-180 limits assumed): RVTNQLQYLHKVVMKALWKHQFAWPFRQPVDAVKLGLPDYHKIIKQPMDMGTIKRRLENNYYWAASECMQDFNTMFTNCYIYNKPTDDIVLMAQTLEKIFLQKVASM

SMILES	PB (human plasma binding) [1] [%]	solubility at 18 h (physchem) [µM]	half-life (in vitro [2]) [h]	PAMPA [3]	IC50 (NALM16 leukaemia cells) [nM]	other results
Cc1sc2c(c1C)C(c1ccc(Cl)cc1)=N[C@@H](CC(=O)Nc1ccc(O)cc1)c1nnc(C)n1-2 [1c, birabresib, reference compound]	97.3					
Cc1sc2c(c1C)C(c1ccc(Cl)cc1)=N[C@@H](CC(=O)NCc1c[nH]nn1)c1nnc(C)n1-2 [1d]		57.4 (≈ 27.6 µg/mL)	0.6			IC50 (BRD4(BD2)): 1.3 nM; IC50 (BRD2 (BD1)): 8.6 nM
Cc1sc2c(c1C)C(c1ccc(Cl)cc1)=N[C@@H](CC(=O)NCc1cn(C)nn1)c1nnc(C)n1-2 [1e]		80.8 (≈ 40 µg/mL)	0.5	14.0 10^−6cm/s		
Cc1sc2c(c1C)C(c1ccc(Cl)cc1)=N[C@@H](CC(=O)NCc1cn(C)cn1)c1nnc(C)n1-2 [1f]		65.7 (≈ 32.5 µg/mL)	0.5	0.0 10^−6cm/s		
Cc1sc2c(c1C)C(c1ccc(Cl)cc1)=N[C@@H](CC(=O)NCc1ccccc1)c1nnc(C)n1-2 [1g]		34.1 (≈ 16.7 µg/mL)	0.1			
Cc1sc2c(c1C)C(c1ccc(Cl)cc1)=N[C@@H](CC(=O)NCc1ccon1)c1nnc(C)n1-2 [1h]	93.5					
Cc1sc2c(c1C)C(c1ccc(Cl)cc1)=N[C@@H](CC(=O)NCc1ncco1)c1nnc(C)n1-2 [1i]					0.8	
COC(=O)C(Cc1c[nH]cn1)NC(=O)C[C@@H]1N=C(c2ccc(Cl)cc2)c2c(sc(C)c2C)-n2c(C)nnc21 (some centres unmarked) [1j]	92.7	68.4 (≈ 37.8 µg/mL)	4.7	0.0 10^−6cm/s		IC50 (BRD4(BD2)): 6.5 nM; half-life (in vitro [4]): 24.7 h
Cc1sc2c(c1C)C(c1ccc(Cl)cc1)=N[C@@H](CC(=O)NCc1ccccn1)c1nnc(C)n1-2 [1k]		72.5 (≈ 35.6 µg/mL)	0.1		14.8	Papp B→A (in vitro [5]): 56.8 ×10⁻⁶ cm/s; Papp (in vitro [5]): 9.84 ×10⁻⁶ cm/s; half-life (in vitro [4]): > 100 h
Cc1sc2c(c1C)C(c1ccc(Cl)cc1)=N[C@@H](CC(=O)NCC(=O)O)c1nnc(C)n1-2 [1l]		66.4 (≈ 30.4 µg/mL)	11.3	0.5 10^−6cm/s		IC50 [6]: > 8850 nM
Cc1sc2c(c1C)C(c1ccc(Cl)cc1)=N[C@@H](CC(=O)NCCO)c1nnc(C)n1-2 [1n]		76.1 (≈ 33.8 µg/mL)	3.2			Papp B→A (in vitro [5]): 8.33 ×10⁻⁶ cm/s; Papp (in vitro [5]): 0.7 ×10⁻⁶ cm/s; half-life (in vitro [4]): > 100 h; IC50 [7]: 8.8 nM
Cc1sc2c(c1C)C(c1ccc(Cl)cc1)=N[C@@H](CC(=O)Nc1nccs1)c1nnc(C)n1-2 [1o]	98.2	12.4 (≈ 5.99 µg/mL)	1.1		6.4	Papp B→A (in vitro [5]): 4.11 ×10⁻⁶ cm/s; Papp (in vitro [5]): 1.91 ×10⁻⁶ cm/s; IC50 (BRD2 (BD1)): 10.9 nM; IC50 (BRD2(BD2)): 2.6 nM
Cc1sc2c(c1C)C(c1ccc(Cl)cc1)=N[C@@H](CC(=O)Nc1nncs1)c1nnc(C)n1-2 [1q]					3.6	affinity in BROMOscan profiling (BET isoforms): high affinity for all BET isoforms; oral bioavailability in words [8]: high bioavailability; IC50 (BRD4 (BD1)): 6.5 nM; IC50 (BRD2 (BD1)): 1.6 nM; MYC protein abundance (MYC): around 50%; IC50 [9]: 6.6 nM; human plasma stability [10]: 100%

Source: paper PMC10165889 (European journal of medicinal chemistry, 2023)
